In ChEMBL document CHEMBL4431306, “Gamma Secretase Modulators: New Alzheimer's Drugs on the Horizon?” (J Med Chem, 2016):

Legend:
[1] = target: Gamma-secretase; test: Modulation of gamma-secretase in human SH-SY5Y cells expressing human APP751 assessed as reduction in amyloid beta 42 production after 18 to 22 hrs by sandwich ELISA; assay type: cell-based
[2] = system: Mus musculus; test: Reduction in amyloid beta 42 levels in Tg 2576 mouse brain at 50 to 100 mg/kg administered via oral gavage for 3 days by LC-MS/MS analysis; assay type: functional
[3] = target: Gamma-secretase; test: Modulation of gamma-secretase (unknown origin) assessed as reduction in amyloid beta 42 production by ELISA; assay type: protein-complex assay, Homo sapiens
[4] = target: Gamma-secretase; test: Modulation of gamma-secretase in human H4 cells expressing human APP751 assessed as reduction in amyloid beta 42 production after 16 to 18 hrs by sandwich ELISA; assay type: cell-based
[5] = target: Gamma-secretase; test: Modulation of gamma-secretase in human H4 cells expressing APP Swedish mutant assessed as inhibition of amyloid beta (1 to 42 residues) production; assay type: cell-based
[6] = target: Gamma-secretase; test: Modulation of gamma-secretase in human SK-N-BE(2) cells expressing human APP695 assessed as reduction in amyloid beta 42 production incubated overnight by sandwich immunoassay; assay type: cell-based
[7] = system: Mus musculus; test: Reduction in amyloid beta 42 levels in mouse brain at 30 mg/kg, po administered as single dose measured 4 hrs post dose by electrochemiluminescence assay; assay type: functional
[8] = system: Mus musculus; test: Reduction in amyloid beta 42 levels in mouse brain at 10 mg/kg, po administered as single dose measured 4 hrs post dose by electrochemiluminescence assay; assay type: functional
[9] = target: Gamma-secretase; test: Modulation of gamma-secretase in human SH-SY5Y cells expressing human APP751 assessed as reduction in amyloid beta 42 production after 24 hrs by sandwich ELISA; assay type: cell-based
[10] = target: Gamma-secretase; test: Modulation of gamma-secretase in human H4 cells expressing human APP695 assessed as reduction in amyloid beta 42 production after 22 hrs by electrochemiluminescence assay; assay type: cell-based
[11] = system: Mus musculus; test: Reduction in amyloid beta 42 levels in mouse brain at 30 mg/kg, po administered as single dose measured 4 hrs post dose by ELISA; assay type: functional
[12] = system: Mus musculus; test: Increase in amyloid beta 38 levels in mouse brain at 30 mg/kg, po administered as single dose measured 4 hrs post dose by ELISA; assay type: functional
[13] = target: Gamma-secretase; test: Modulation of gamma-secretase in human SH-SY5Y cells expressing human APP751 assessed as reduction in amyloid beta 42 production after 16 to 18 hrs by ELISA; assay type: cell-based
[14] = system: Mus musculus; test: Reduction in amyloid beta (1 to 42 residues) AUC in triple transgenic mouse brain at 30 mg/kg administered via oral gavage measured up to 24 hrs by UPLC-MS-MS analysis; assay type: functional
[15] = system: Rattus norvegicus; test: Reduction in amyloid beta (1 to 42 residues) AUC in Sprague-Dawley rat brain at 10 mg/kg administered via oral gavage measured up to 24 hrs by UPLC-MS-MS analysis; assay type: functional
[16] = system: Mus musculus; test: Reduction in amyloid beta (1 to 42 residues) AUC in triple transgenic mouse brain at 100 mg/kg administered via oral gavage measured up to 24 hrs by UPLC-MS-MS analysis; assay type: functional
[17] = system: Homo sapiens; test: Reduction in amyloid beta (1 to 42 residues) […] in human plasma at 250 mg, po administered as single dose measured up to 24 hrs relative to control; assay type: functional
[18] = system: Homo sapiens; test: Reduction in amyloid beta 42 levels in human plasma at 250 mg, po administered as single dose measured over 24 hrs post dose by sandwich enzyme immunoassay; assay type: functional
[19] = species on record: Homo sapiens; test: Modulation of gamma-secretase in human H4 cells expressing human APP695 assessed as inhibition of amyloid beta 42 production at 10 uM after 16 hrs by sandwich ELISA; assay type: functional
[20] = target: Gamma-secretase; test: Modulation of gamma-secretase in human H4 cells expressing human APP695 assessed as inhibition of amyloid beta 42 production after 16 hrs by sandwich ELISA; assay type: cell-based

## CCN(CC)c1ccc(Nc2nc(-c3ccc(-n4ccnc4)cc3)cs2)c(C)c1
[1]
  EC50: 1500 nM

## CCc1cc(Nc2nc(-c3ccc(-n4cnc(C)c4)c(F)c3)cs2)c(C)cc1C
[2]
  inhibition (INH): 30 - 40%

## CC(=O)O[C@@H]([C@H]1C[C@@H](C)C2=C(O1)[C@H](O)[C@@]1(C)[C@@H]3CC[C@H]4C(C)(C)[C@@H](O[C@@H]5OC[C@@H](O)[C@H](O)[C@H]5O)CC[C@@]45C[C@@]35CC[C@]21C)C(C)(C)O
[3]
  EC50: 100 nM

## COc1cc(N2CCC(Nc3ncc4c(n3)N(c3ccccc3)CCO4)CC2)ccn1
[4]
  EC50: 25 nM

## CNc1nc(Cc2ccccc2)nc(Nc2ccc(-n3cnc(C)c3)c(OC)c2)n1
[5]
  EC50: 29 nM

## CCn1cc(C(C)N2C(=O)c3ccc(-n4cnc(C)c4)c(=O)n3C[C@H]2C)c2cc(Cl)c(F)cc21 (some centres not stated)
[6]
  EC50: 10 nM
[7]
  inhibition in vivo at 30 mg/kg: 61%

## Cc1cn(-c2ccc3n(c2=O)C[C@@H](C)N(C(C)c2coc4cc(F)c(C(F)(F)F)cc24)C3=O)cn1 (some centres not stated)
[8]
  inhibition in vivo at 10 mg/kg: 42%
[6]
  EC50: 6 nM

## CCn1nc2c(c1Nc1nc(-c3ccc(-n4cnc(C)c4)cc3)cs1)CCCC2
[9]
  EC50: 347 nM

## CCn1nc2c(c1Nc1nc(-c3ccc(-n4cnc(C)c4)nc3)cs1)CCCC2
[9]
  EC50: 1300 nM

## CCN1C(=O)C2CCCCCN2c2nc(Nc3ccc(-n4cnc(C)c4)c(OC)c3)ncc21 (configuration not stated)
[10]
  EC50: 46 nM

## COc1cc2[nH]c(-c3cn4c(n3)C(c3cccc(F)c3C)OCC4)cc2cc1C#N (configuration not stated)
[6]
  EC50: 20 nM
[11]
  inhibition in vivo at 30 mg/kg: 66%
[12]
  Activity: 40%

## CCn1nc2c(c1Nc1nc(-c3ccc(-n4cnc(C)c4)c(OC)n3)cs1)CCCC2
[9]
  EC50: 30 nM

## Cc1cn(-c2ccc3n(c2=O)CC2CCC(Cc4cc(C(F)(F)F)cc(C(F)(F)F)c4)N2C3=O)cn1 (configuration not stated)
[6]
  EC50: 50 nM

## COc1cc2[nH]c(-c3cn4c(n3)C(c3ccccc3C(F)(F)F)OCC4)cc2cc1C#N (configuration not stated)
[6]
  EC50: 45 nM
[11]
  inhibition in vivo at 30 mg/kg: 57%
[12]
  Activity: 41%

## COc1cc(Nc2ncc3c(n2)N(c2cc(F)cc(F)c2)CCO3)ccc1-n1cnc(C)c1
[4]
  EC50: 14 nM

## COc1cc(Nc2ncc3c(n2)N(C)C2(CCCC2)C(=O)N3CC(F)(F)F)ccc1-n1cnc(C)c1
[10]
  EC50: 22 nM

## COc1cc(Nc2ncc3c(n2)N(C)C2(CC2)CO3)ccc1-n1cnc(C)c1
[4]
  EC50: 49 nM

## COc1cc(N2CCC(Nc3ncc4c(n3)N(CC(F)(F)F)CCO4)CC2)ccn1
[4]
  EC50: 105 nM

## COc1cc2[nH]c(-c3cn4c(n3)C(c3ccccc3Cl)OCC4)cc2cc1C#N (configuration not stated)
[6]
  EC50: 21 nM
[11]
  inhibition in vivo at 30 mg/kg: 73%
[12]
  Activity: 10%

## COc1cc(-c2csc(N3CCCn4nc5c(c43)CCCC5)n2)ccc1-n1cnc(C)c1
[13]
  EC50: 6 nM

## COc1cc(Nc2ncc3c(n2)N(c2ccccc2)CCO3)ccc1-n1cnc(C)c1
[4]
  EC50: 39 nM

## Cc1cc([C@@H]2CC[C@@H](Nc3ncc4c(n3)N(c3ccccc3Cl)CCO4)CO2)ccn1
[4]
  EC50: 41 nM

## COc1cc(Nc2nc3c(c(N4CCCCC4)n2)SC2(CCC2)C3)ccc1-n1cnc(C)c1
[10]
  EC50: 90 nM

## COc1cc(Nc2ncc3c(n2)N2CCCC2CO3)ccc1-n1cnc(C)c1 (configuration not stated)
[4]
  EC50: 71 nM

## COc1cc(Nc2nc3n(n2)CCCC[C@H]3c2ccc(F)cc2)ccc1-n1cnc(C)c1
[14]
  inhibition in vivo at 30 mg/kg: 31%
[5]
  EC50: 6 nM
[15]
  inhibition in vivo at 10 mg/kg: 47%
[16]
  inhibition in vivo at 100 mg/kg: 55%

## COc1cc(Nc2ncc3c(n2)N(CC(F)(F)F)CCO3)ccc1-n1cnc(C)c1
[4]
  EC50: 101 nM

## COc1cc(Nc2ncc3c(n2)N(C)[C@@H](c2ccccc2)CO3)ccc1-n1cnc(C)c1
[4]
  EC50: 16 nM

## COc1nc(/C=C/c2nc3n(n2)CCC[C@H]3c2ccccc2C(F)(F)F)ccc1-n1cnc(C)c1 [E-2212]
[17]
  inhibition (INH): 44%
[18]
  inhibition (INH): 54%

## C[C@H](CCC(=O)O)[C@H]1CC[C@H]2[C@@H]3CC[C@@H]4C[C@H](O)CC[C@]4(C)[C@H]3CC[C@]12C [LITHOCHOLIC ACID]
[19]
  inhibition at 10 µM: 62%

## C[C@H](CCC(=O)O)[C@H]1CC[C@H]2[C@@H]3CC[C@@H]4CCCC[C@]4(C)[C@H]3CC[C@]12C [URSOCHOLANIC ACID]
[20]
  EC50: 5700 nM
